Assays:
[1] = test system: A549 lung carcinoma cells; test: Antiproliferative activity, SRB assay; format: cell-based, human; conditions: A549; SRB assay, 24 h treatment, 72 h recovery
Experimental: (§1) The antiproliferative activity against human A549 lung, IGROV-1 ovarian, and HeLa cervical cancer cell lines and MRC5 normal lung fibroblasts was determined by the sulforhodamine B (SRB) assay. […] IGROV-1 is known to be cisplatin-sensitive and subject to hypermutation.
(§2) 2.8 Mammalian cell culture
(§3) The human ovarian cancer cell line, IGROV-1; the human cervical cancer cell line, HeLa; the human […]; and the human non-cancerous lung fibroblast cell line, MRC5 were cultured in DMEM supplemented with 10% FBS and 100 units/mL of penicillin and 100 µg/mL of streptomycin (1x pen/strep). All cell lines were incubated at 310 K with 5% CO2 and 95% humidity for routine maintenance and during drug treatment.
(§4) 2.9 Sulforhodamine (SRB) cytotoxicity assay
(§5) Cells were seeded at 5 × 10^3 cells per well and incubated at 310 K for 48 h. Stock solutions (200 µM) of the complexes were prepared by dissolving the compound in 5% (v/v) DMSO followed by dilution with DMEM and serial dilutions with DMEM were prepared (0.1 µM-200 The cells were exposed to the drug for 24 h. The drug was then removed, and cells were allowed to recover for 72 h, in drug-free media. Cell viability was then determined by the SRB colorimetric assay. The solubilised dye absorbance was analysed on a microplate reader (Thermo Scientific Multiskan FC with Scanit software 4.1) at 470 nm. Data were normalized using Microsoft Excel, and dose-response curves fitted using Origin 2016. The IC50 values

[2] = test system: IGROV-1 ovarian carcinoma cells; test: Antiproliferative activity, SRB assay; format: cell-based, human; conditions: for IC50: IGROV-1, SRB assay, 24 h treatment, 72 h recovery
Experimental: as §1, §2, §3, §4, §5

[3] = test system: MRC-5 normal lung fibroblasts; test: Antiproliferative activity, SRB assay; format: cell-based, human; conditions: for IC50: MRC-5, SRB assay, 24 h treatment, 72 h recovery
Experimental: as §1, §2, §3, §4, §5

[4] = test system: HeLa cervical adenocarcinoma cells; test: Antiproliferative activity, SRB assay; format: cell-based, human; conditions: SRB assay, 24 h treatment, 72 h recovery
Experimental: as §1, §2, §3, §4
as §5, with “µM-200 µM).” for “µM-200”

[5] = test system: IGROV-1 human ovarian cancer cells; test: Cell cycle arrest by flow cytometry (PI); format: cell-based; conditions: 24 h treatment; for Progression to G2/M: IGROV-1, 50 or 100 μM
Experimental: 2 Effect of Os/Ru-LBSO and glycine complexes at 50 or 100 μM on the phases of the cell cycle of IGROV-1 human ovarian cancer cells compared with untreated (control) cells. Percentage of cells in G1 (black bar, cell growth), S (gray, DNA synthesis), G2/M, (white, growth/mitosis) as determined by flow cytometry after 24 h treatment with complexes. […] Standard deviations calculated for N = 3 *p-value <0.05 comparing to untreated sample.
as §2
as §3, with “treatment. […]” for “treatment.”
IGROV-1 cells (1 x 10^6 cells per well) were seeded in a 6-well plate and incubated for 24 h at 310 K. Stock solutions (200 µM) of the complexes were prepared by dissolving the compound in 5% (v/v) DMSO followed by dilution with DMEM and then diluted to desired concentrations. All complexes (50 µM and 100 µM) were added to the wells and incubated for 24 h. Cell pellets were collected using 0.25% trypsin and centrifuged (500 x g, 5 mins at 4 °C). Then washed in PBS and fixed with 100% ice-cold ethanol for 20 min on ice. The ethanol […]
was aspirated, cells washed in ice-cold PBS and then stained with 0.2 mg/mL RNase, 0.05 mg/mL propidium iodide (PI) in PBS for 25 min in the dark and on ice. Excess dye was removed, and cells were re-suspended in PBS. Samples were analysed by flow cytometry using the BD

[6] = test system: intracellular GSH in IGROV-1 cells; test: Glutathione colorimetric detection assay; format: cell-based, human; conditions: IGROV-1, 50 μM, 24 h
Experimental: This lowering was not observed for Ru-LBSO which is not active in this cell line. Other papers have shown a similar result by including L-BSO as an additional agent, therefore showing L-BSO remains inhibitory.
Once the agarose had set , the slides were submerged in alkaline lysis solution (1.3 M NaCl, 100 mM Na2EDTA, 0.1% sodium lauryl sarcosinate, 0.26 M NaOH pH > 13) and incubated overnight at 277 K in the dark. The following day the slides were rinsed for 20 min three times in the electrophoresis solution ([…] NaOH, 2mM Na 2EDTA pH 12.3). The slides were then placed into the electrophoresis tank with fresh electrophoresis buffer, 1 -2 mm above the slides. Electrophoresis was run at 18.3 V for 25 min. Once electrophoresis was complete, slides were rinsed in distilled water and placed in 2.5 µg/mL PI for 20 min. After staining, cells were rinsed in distilled water to remove excess stain. Twenty comet images per sample were taken by confocal microscopy and analysed by OpenComet. 10
1 x 10^6 IGROV-1 cells were seeded in a 6-well plate and incubated for 24 h at 310 K. All complexes (50 µM and 100 µM) were added to the wells and incubated for 24 h. […]
Percentage of IGROV -1 cancer cells in non -apoptotic, apoptotic (early and late) or necrotic phases determined by flow cytometry after 24 h treatment with Os/Ru L -BSO and glycine complexes. […] Standard deviations calculated for N=3. […]

[7] = Aqueous stability / hydrolysis monitored by 1H NMR; format: physicochemical; conditions: 3:7 v/v methanol-d4:D2O, 310 K, 1H NMR
IGROV-1 cells = test: Comet assay (DNA damage in single cells); format: cell-based, human; conditions: IGROV-1, 24 h; 100 μM for Cisplatin and Os-Gly
Experimental: Comet assays were carried out to determine whether the complexes caused DNA damage in single cells. […] Cisplatin DNA-adducts have been shown previously to inhibit DNA migration through electrophoresis presenting as less tail movement. […] Excess dye was removed, and cells were re-suspended in PBS. Samples were analysed by flow cytometry using the BD FACSMelodyTM Cell Sorter (R653880001) and data analysis on FlowJoTM v10 Software (BD Life Sciences).9 2.11 Apoptosis IGROV-1 cells (1 x 106) were seeded in a 6-well plate and incubated for 24 h at 310 K. Stock solutions (200 μM) of the complexes were prepared by dissolving the compound in 5% (v/v) DMSO followed by dilution with DMEM and then diluted to desired concentrations. All complexes (50 μM and 100 μM) were added to the wells and incubated for 24 h. Cell pellets were collected using 0.25% trypsin and centrifuged (500 x g, 5 mins at 277 K). Cell pellets were washed with PBS and then stained with the commercial Apoptosis Detection Kit-FITC Annexin V and PI (BioLegend; San Diego, USA), as per manufacturer's instructions. Briefly, a staining solution of FITC Annexin V (1 unit/100 μL) diluted 1 in 100 and 1 μg/mL PI was added to the cells (30 min, room temperature). Excess dye was removed, and cells were re-suspended in PBS. Samples were analysed by flow cytometry using the BD FACSMelodyTM Cell Sorter (R653880001) and data analysis on FlowJoTM v10 Software (BD Life Sciences).9 2.12 Comet assay IGROV-1 cells (8×10^5 cells per well) were seeded into 6-well plates and incubated for 24 h. Test compounds (50 μM and 100 μM) were added to the wells and incubated at 3 10 K for 24 h. Cells were enzymatically detached using trypsin and cell concentration adjusted to 2×10^4 cells /mL in ice-cold PBS. 0.4 mL of cell suspension was added to 1.2 mL of 1% low melting point agarose in H 2O, then immediately added to microscope slides pre -coated in 1% agarose. […] Twenty comet images per sample were taken by confocal microscopy and analysed by OpenComet. […]

IC50 [1] [µM]	IC50 [2] [µM]	IC50 [4] [µM]	Time to hydrolysis [7] [min]	Compound	IC50 [3] [µM]	Progression to G2/M [5]	Activity against IGROV-1 ([2]; IGROV-1, SRB)	Activity toward normal lung cells ([3]; MRC-5, SRB)	G1 arrest (percentage of cells in G1) ([5]; IGROV-1, 100 μM, vs untreated)	Lowering of intracellular GSH level [6]	Comet tails vs untreated cells (IGROV-1 cells)
> 200	> 200	> 200	–	Cc1ccc(C(C)C)cc1.O=C1C[NH][Ru]([Cl])[O]1 [Ru-Gly, [(p-cymene)Ru(Gly)Cl]]	112 ± 4	little progression to G2/M	–	–	–	–	–
> 200	108 ± 8	> 200	≤ 15	[(p-cymene)Ru(L-BSO)Cl] [Ru-LBSO]	4.3 ± 0.7	–	not active	some activity	significantly increased	not observed	–
3 ± 0.2	20 ± 4.8	–	–	[NH2][Pt]([NH2])([Cl])[Cl] [CDDP, Cisplatin, reference compound]	13.5 ± 0.9	–	–	–	–	–	statistically significantly shorter comet tails
> 200	> 200	> 200	–	Cc1ccc(C(C)C)cc1.O=C1C[NH][Os]([Cl])[O]1 [Os-Gly, [(p-cymene)Os(Gly)Cl]]	107 ± 2	little progression to G2/M	–	–	–	–	statistically significantly shorter comet tails

— article PMC12728982, “Multichiral Half-Sandwich Ru(II) and Os(II) Anticancer Complexes Containing a Glutathione Synthesis Inhibitor” (Organometallics, 2025)
